Experimental data taken from ChEMBL document CHEMBL1131838, “8-acenaphthen-1-yl-1-phenyl-1,3,8-triaza-spiro[4.5]decan-4-one derivatives as orphanin FQ receptor agonists” (Bioorg Med Chem Lett, 1999).
Active and inactive are the calls of the source. The calls are words filed in the database; no cut-off is given here.

What was measured:
[1] = molecular target: 5-hydroxytryptamine receptor 1D (Homo sapiens, UniProt P28221); assay: Affinity against 5-hydroxytryptamine 1D receptor alpha
[2] = molecular target: 5-hydroxytryptamine receptor 2A (Homo sapiens, UniProt P28223); assay: Affinity against 5-hydroxytryptamine 2A receptor
[3] = molecular target: 5-hydroxytryptamine receptor 7 (Homo sapiens, UniProt P34969); assay: Affinity against 5-hydroxytryptamine 7 receptor
[4] = molecular target: 5-hydroxytryptamine receptor 6 (Homo sapiens, UniProt P50406); assay: Affinity against 5-hydroxytryptamine 6 receptor
[5] = molecular target: T1, 5-hydroxytryptamine receptor 2C (Homo sapiens, UniProt P28335); assay: Affinity against 5-hydroxytryptamine 2C receptor
T1 sequence (P28335 whole entry): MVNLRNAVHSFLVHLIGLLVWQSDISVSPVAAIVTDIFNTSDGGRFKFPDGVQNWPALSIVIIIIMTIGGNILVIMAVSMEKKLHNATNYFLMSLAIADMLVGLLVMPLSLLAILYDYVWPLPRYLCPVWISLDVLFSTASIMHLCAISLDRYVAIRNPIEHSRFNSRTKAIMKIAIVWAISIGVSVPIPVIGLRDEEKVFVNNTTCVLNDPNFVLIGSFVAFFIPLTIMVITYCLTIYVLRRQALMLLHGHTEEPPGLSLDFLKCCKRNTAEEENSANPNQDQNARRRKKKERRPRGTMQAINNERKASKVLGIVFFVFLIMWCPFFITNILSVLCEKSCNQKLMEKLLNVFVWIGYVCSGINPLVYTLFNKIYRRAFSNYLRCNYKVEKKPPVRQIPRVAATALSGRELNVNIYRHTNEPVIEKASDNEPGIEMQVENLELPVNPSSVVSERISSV

[6] = molecular target: GABA-A receptor; anion channel; assay: Binding affinity for GABA-A central benzodiazepine receptor; format: protein-complex assay
[7] = molecular target: T2, Corticotropin-releasing factor receptor 1 (Rattus norvegicus, UniProt P35353); assay: Affinity against Corticotropin releasing factor receptor 1
T2 sequence (P35353 whole entry): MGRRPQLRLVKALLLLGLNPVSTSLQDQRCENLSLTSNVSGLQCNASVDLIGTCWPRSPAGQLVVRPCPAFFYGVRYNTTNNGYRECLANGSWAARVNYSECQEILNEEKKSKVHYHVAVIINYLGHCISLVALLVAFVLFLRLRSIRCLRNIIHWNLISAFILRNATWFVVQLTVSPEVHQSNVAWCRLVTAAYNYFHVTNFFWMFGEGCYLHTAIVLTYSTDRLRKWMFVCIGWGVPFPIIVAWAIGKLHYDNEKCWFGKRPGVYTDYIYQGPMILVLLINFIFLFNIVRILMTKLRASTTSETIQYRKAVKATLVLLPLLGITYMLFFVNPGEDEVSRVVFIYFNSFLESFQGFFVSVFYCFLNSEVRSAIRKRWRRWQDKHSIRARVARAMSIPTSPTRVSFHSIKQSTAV

D(4) dopamine receptor = molecular target: T3, D(4) dopamine receptor (Homo sapiens, UniProt P21917); assay: Affinity against Dopamine receptor D4.4
T3 sequence (P21917 whole entry): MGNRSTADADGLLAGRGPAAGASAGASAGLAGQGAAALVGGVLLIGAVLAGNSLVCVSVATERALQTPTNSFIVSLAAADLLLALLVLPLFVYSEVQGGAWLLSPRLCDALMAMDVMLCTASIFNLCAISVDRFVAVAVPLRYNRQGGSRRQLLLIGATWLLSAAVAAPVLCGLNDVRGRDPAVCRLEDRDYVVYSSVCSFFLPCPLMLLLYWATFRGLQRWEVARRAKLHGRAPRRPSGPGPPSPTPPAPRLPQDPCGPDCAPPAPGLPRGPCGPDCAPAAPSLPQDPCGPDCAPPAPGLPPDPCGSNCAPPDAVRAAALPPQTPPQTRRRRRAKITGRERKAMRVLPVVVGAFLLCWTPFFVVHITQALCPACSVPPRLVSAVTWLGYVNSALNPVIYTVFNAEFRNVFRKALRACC

D(3) dopamine receptor = D(3) dopamine receptor (Homo sapiens, UniProt P35462); assay: Affinity against Dopamine receptor D3
Rattus norvegicus [8] = assay: Forced motor performance in rats was determined and grip strength was reported at 3.2 mg/kg by ip administration; format: functional; settings: route intraperitoneal
Rattus norvegicus [9] = assay: Forced motor performance in rats was determined and grip strength was reported at 0.32 mg/kg by ip administration; format: functional; settings: route intraperitoneal
Rattus norvegicus [10] = assay: Forced motor performance in rats was determined and grip strength was reported at 1 mg/kg by ip administration; format: functional; settings: route intraperitoneal
Rattus norvegicus [11] = assay: Spontaneous locomotion in rats was determined and distance moved was reported at dose 1 mg/kg by ip administration; format: functional; settings: route intraperitoneal
Rattus norvegicus [12] = assay: Spontaneous locomotion in rats was determined and distance moved was reported at dose 3.2 mg/kg by ip administration; format: functional; settings: route intraperitoneal
Rattus norvegicus [13] = assay: Forced motor performance in rats was determined and traction test score was reported at 0.32 mg/kg by ip administration; format: functional; settings: route intraperitoneal
Rattus norvegicus [14] = assay: Forced motor performance in rats was determined and traction test score was reported at 1 mg/kg by ip administration; format: functional; settings: route intraperitoneal
Rattus norvegicus [15] = assay: Forced motor performance in rats was determined and traction test score was reported at 3.2 mg/kg by ip administration; format: functional; settings: route intraperitoneal
[16] = Affinity against Corticotropin releasing factor receptor 2 alpha
D(2) dopamine receptor = D(2) dopamine receptor (Homo sapiens, UniProt P14416); assay: Affinity against Dopamine receptor D2
D(1A) dopamine receptor = D(1A) dopamine receptor (Mus musculus, UniProt Q61616); assay: Affinity against Dopamine receptor D1
Rattus norvegicus [17] = assay: Spontaneous locomotion in rats was determined and distance moved was reported at dose 0.32 mg/kg by ip administration; format: functional; settings: route intraperitoneal
[18] = Compound was evaluated for the opioid receptor agonistic activity at dose 1-10 mg/kg by intraperitoneal administration; Inactive; format: functional, organism-based

Sequence of 5-hydroxytryptamine receptor 2A (P28223 whole entry): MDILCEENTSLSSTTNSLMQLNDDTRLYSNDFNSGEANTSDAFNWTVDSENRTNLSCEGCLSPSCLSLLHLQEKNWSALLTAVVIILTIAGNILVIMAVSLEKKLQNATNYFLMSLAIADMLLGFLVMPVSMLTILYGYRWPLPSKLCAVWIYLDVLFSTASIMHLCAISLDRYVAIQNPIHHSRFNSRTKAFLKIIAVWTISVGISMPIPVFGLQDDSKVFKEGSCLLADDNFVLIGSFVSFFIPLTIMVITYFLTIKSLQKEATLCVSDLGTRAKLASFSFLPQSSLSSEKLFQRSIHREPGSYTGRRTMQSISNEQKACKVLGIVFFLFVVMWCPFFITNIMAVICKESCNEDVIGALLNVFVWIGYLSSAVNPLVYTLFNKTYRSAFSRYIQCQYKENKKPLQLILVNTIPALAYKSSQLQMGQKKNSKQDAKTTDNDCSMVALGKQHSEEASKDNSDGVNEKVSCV
Sequence of 5-hydroxytryptamine receptor 1D (P28221 whole entry): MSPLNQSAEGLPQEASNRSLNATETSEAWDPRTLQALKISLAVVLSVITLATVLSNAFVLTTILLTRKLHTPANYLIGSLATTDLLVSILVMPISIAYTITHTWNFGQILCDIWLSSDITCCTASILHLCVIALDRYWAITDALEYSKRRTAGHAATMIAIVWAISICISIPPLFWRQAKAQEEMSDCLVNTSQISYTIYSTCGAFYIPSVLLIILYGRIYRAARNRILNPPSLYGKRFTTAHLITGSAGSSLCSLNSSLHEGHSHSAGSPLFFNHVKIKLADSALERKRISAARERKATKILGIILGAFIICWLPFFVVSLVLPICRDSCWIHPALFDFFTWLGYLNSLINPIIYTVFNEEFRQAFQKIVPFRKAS
Sequence of 5-hydroxytryptamine receptor 7 (P34969 whole entry): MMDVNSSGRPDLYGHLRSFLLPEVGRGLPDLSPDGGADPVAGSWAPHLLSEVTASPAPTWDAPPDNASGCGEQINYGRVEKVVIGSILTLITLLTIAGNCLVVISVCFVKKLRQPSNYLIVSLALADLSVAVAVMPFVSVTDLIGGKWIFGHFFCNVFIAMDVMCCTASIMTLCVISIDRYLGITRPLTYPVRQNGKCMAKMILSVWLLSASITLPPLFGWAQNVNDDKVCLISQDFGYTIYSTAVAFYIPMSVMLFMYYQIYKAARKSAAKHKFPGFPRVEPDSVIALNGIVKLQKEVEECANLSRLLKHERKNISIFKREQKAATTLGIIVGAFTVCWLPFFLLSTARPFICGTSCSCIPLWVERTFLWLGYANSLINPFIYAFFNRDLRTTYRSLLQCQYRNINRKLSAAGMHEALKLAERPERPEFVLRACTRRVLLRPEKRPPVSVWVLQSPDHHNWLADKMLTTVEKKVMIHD
Sequence of D(3) dopamine receptor (P35462 whole entry): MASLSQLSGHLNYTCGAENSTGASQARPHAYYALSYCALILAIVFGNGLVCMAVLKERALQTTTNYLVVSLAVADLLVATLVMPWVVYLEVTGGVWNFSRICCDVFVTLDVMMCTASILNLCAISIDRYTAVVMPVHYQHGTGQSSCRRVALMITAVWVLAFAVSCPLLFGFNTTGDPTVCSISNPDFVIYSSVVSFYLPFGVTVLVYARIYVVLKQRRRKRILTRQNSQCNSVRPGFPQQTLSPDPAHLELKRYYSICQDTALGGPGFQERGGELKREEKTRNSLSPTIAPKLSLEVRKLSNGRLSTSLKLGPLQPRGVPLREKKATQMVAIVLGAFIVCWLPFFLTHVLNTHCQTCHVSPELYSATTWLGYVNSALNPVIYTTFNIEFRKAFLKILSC
Sequence of D(1A) dopamine receptor (Q61616 whole entry): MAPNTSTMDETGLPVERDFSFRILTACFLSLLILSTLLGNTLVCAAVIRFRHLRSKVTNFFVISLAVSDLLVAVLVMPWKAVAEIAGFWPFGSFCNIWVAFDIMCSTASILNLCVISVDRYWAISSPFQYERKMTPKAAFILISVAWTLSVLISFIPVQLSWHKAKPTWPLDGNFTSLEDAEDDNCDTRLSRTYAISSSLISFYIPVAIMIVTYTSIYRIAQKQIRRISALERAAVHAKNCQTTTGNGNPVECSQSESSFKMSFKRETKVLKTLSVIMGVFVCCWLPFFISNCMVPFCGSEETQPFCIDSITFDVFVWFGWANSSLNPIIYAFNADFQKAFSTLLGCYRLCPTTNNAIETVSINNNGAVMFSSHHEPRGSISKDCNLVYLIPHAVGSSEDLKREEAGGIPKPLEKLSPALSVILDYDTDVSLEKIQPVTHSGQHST
Sequence of 5-hydroxytryptamine receptor 6 (P50406 whole entry): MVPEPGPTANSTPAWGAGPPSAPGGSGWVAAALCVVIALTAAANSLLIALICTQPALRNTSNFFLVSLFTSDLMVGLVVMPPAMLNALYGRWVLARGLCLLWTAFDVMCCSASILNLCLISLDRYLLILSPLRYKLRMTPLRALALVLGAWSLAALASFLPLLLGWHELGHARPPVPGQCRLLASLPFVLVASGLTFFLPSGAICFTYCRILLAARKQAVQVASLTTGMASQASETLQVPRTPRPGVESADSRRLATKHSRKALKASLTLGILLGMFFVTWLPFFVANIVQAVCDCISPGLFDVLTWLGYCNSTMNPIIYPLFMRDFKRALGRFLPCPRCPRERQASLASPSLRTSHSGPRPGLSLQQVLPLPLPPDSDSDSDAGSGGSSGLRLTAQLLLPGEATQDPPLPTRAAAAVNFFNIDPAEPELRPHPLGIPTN
Sequence of D(2) dopamine receptor (P14416 whole entry): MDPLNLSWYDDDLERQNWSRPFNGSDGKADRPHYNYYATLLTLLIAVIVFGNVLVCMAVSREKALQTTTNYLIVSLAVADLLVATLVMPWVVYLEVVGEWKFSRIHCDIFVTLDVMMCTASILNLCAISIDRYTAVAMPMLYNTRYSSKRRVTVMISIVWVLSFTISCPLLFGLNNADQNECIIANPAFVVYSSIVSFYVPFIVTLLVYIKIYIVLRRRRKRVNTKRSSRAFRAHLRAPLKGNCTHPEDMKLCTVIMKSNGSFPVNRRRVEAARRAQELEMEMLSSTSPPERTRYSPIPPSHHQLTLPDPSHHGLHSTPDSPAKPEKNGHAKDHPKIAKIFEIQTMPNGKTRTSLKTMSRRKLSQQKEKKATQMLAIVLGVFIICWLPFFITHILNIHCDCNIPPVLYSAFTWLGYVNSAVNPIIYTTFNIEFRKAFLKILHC

## O=C1NCN(c2ccccc2)C12CCN([C@@H]1Cc3cccc4cccc1c34)CC2
[1]
  Log Ki: < -6.5
[2]
  Log Ki: < -6.5
[3]
  Log Ki: < -6.5
[4]
  Log Ki: < -6.5
[5]
  Log Ki: < -6.5
[6]
  Log Ki: < -6.5
[7]
  Log Ki: < -6.5
D(4) dopamine receptor
  Log Ki: < -6.5
D(3) dopamine receptor
  Log Ki: < -6.5
Rattus norvegicus [8]
  Grip strength: 479 g
Rattus norvegicus [9]
  Grip strength: 516.25 g
Rattus norvegicus [10]
  Grip strength: 521.63 g
Rattus norvegicus [11]
  Locomotion: 1465.79 cm
Rattus norvegicus [12]
  Locomotion: 1141.08 cm
Rattus norvegicus [13]
  Traction test: 4 score
Rattus norvegicus [14]
  Traction test: 4 score
Rattus norvegicus [15]
  Traction test: 3.75 score
[16]
  Log Ki: < -6.5
D(2) dopamine receptor
  Log Ki: < -6.5
D(1A) dopamine receptor
  Log Ki: < -6.5
Rattus norvegicus [17]
  Locomotion: 1412.39 cm

## CN1CC[C@]23c4c5ccc(O)c4O[C@H]2[C@@H](O)C=C[C@H]3[C@H]1C5
[18]
  Activity: inactive
